Entries after “also recorded” stand apart in the source; their conditions may differ.
System: HCC1806 cells
Test: TMT MS quantitative proteomics of live cells treated with FragTAC probes (HCC1806)
Assay type: cell-based, Homo Sapiens
Conditions: TMT proteomics, targets with 2 unique peptides or more and depleted 2-fold or more relative to DMSO control (P value <0.05)
Description: Mammalian cell culture: MDA-MB-231 cells (ATCC) were maintained in DMEM supplemented with 10% (v/v) fetal bovine serum (FBS), 1% (v/v) penicillin/streptomycin, and 2 mM glutamine. HCC1806 cells (ATCC) were maintained in RPMI supplemented with 10% (v/v) fetal bovine serum (FBS), 1% (v/v) penicillin/streptomycin, and 2 mM glutamine. All cell lines were grown at 37° C. in a humidified 5% CO2 atmosphere.
Treatment of Live Cells with FragTAC Probes: Separate 6 cm (for gel-based analyses) or 10 cm (for MS-based analyses) dishes of MDA-MB-231 cells or HCC1806 cells were grown to 80-95% confluency with DMEM media and RPMI media respectively. The growth medium was aspirated, and the cells were washed with Dulbecco's phosphate buffered saline (DPBS). The cells were incubated with serum-free media containing fragment probes (200 μM) or control probes (200 μM) for 6 hours at 37° C. under a 5% CO2 atmosphere. The cultures were scraped, washed with cold DPBS, and collected into 15 mL centrifuge tubes, then transferred to 1.5 mL Eppendorf tubes. The cell suspensions were centrifuged (1,400 g, 3 min) and the pellets were stored at −80° C. until the next stage of processing.
Sample preparation for TMT MS Quantitative Proteomics: For treatment of cell lysates, cells were collected, cell pellets were resuspended in 100 μL DPBS containing 1× Halt protease inhibitor cocktail, and lysed by sonication (15 ms on, 40 ms off, 15% amplitude, 1 s total). Protein concentrations were normalized (2 mg/mL in 100 μL with cold DPBS) using the Lowry Protein Assay (Pierce). Urea (48 mg) was weighed for each sample in 2 mL LoBind Eppendorf tubes and cell lysates (100 μL=200 μg) were added (final urea concentration=8 M). Pellets were resuspended in a freshly prepared 1:1 solution (50 μL) TCEP (200 mM in DPBS) and K2CO3 (600 mM in DPBS) and incubated (30 min, 37° C.) while shaking. After reaction, a solution of freshly prepared iodoacetamide (70 μL, 400 mM in DPBS) was added and incubated for 30 min at room temperature while protected from light. After reaction, 1.8 mL of cold 3:1:2 MeOH/CHCl3/H2O solution was added to each tube, and the samples were centrifuged (10,000×g, 10 min, 4° C.), forming a disc. The supernatant was carefully removed, MeOH (600 μL) was added, samples were centrifuged as previously described and the supernatant was removed. Cell pellets were resuspended in TEAB (160 μL, 100 mM, pH 8.5) and sonicated as described previously. Endoproteinase LysC (20 μL, ½ vial, 10 μg dissolved in 220 μL of 100 mM TEAB pH 8.5) was added to each and incubated at 37° C. for 2 h with shaking. Sequencing-grade modified porcine trypsin (20 μL, 1 vial, 20 μg dissolved in 220 μL of 100 mM TEAB pH 8.5), a solution of Protease Max (2 μL, 1% (w/v) in 100 mM TEAB pH 8.5) and a solution of CaCl2) (2 μL, 100 mM) were added to the samples and incubated at 37° C. overnight (14 h) with shaking. The digest was separated by centrifugation (12,000×g, 10 min, 4° C.). Peptide concentration was determined using Pierce Quantitative Fluorometric Peptide Assay Kit (Thermo Fisher Scientific, 23290) according to manufacturer's instructions. MS-grade acetonitrile (12.5 μL) was added to each and samples were labeled with respective TMT 10 plex isotope (8 μL, 20 μg/μL) for 1 h with occasional vortexing at RT. To quench, hydroxylamine (3 μL, 5% v/v) was added to each sample, vortexed, and incubated for 15 min at RT. Formic acid (5 μL) was added to each tube to acidify and the samples were dried under vacuum centrifugation. The samples were combined by redissolving the contents of one tube in a solution of trifluoroacetic acid (TFA, 400 μL, 0.1% in water) and transferred into each sample until all samples were redissolved. The stepwise process was repeated with formic acid (Buffer A, 200 μL, 0.1% in water) for a final volume of 600 μL. […]

Row | SMILES | Downregulated proteins targeted by FragTAC probes (protein listed for the probe code) (cell line not given) | Proteins targeted (downregulated) by FragTAC probe (value = downregulated protein)
1 | Cc1ncsc1-c1ccc(CNC(=O)[C@@H]2C[C@@H](O)CN2C(=O)[C@@H](NC(=O)CCOCCOCCC(=O)NCCc2ccc3c(c2)NC(=O)CCC3)C(C)(C)C)cc1 [LPC034, (2S,4R)-1-((S)-2-(tert-butyl)-4,13-dioxo-16-(2-oxo-2,3,4,5-tetrahydro-1H-benzo[b]azepin-8-yl)-7,10-dioxa-3,14-diazahexadecanoyl)-4-hydroxy-N-(4-(4-methylthiazol-5-yl)benzyl)pyrrolidine-2-carboxamide] | KRT10 and KRT2 | 
2 | Cc1ncsc1-c1ccc(CNC(=O)[C@@H]2C[C@@H](O)CN2C(=O)[C@@H](NC(=O)CCOCCOCCC(=O)N[C@H]2CCCc3ccccc32)C(C)(C)C)cc1 [LPC049, (2S,4R)-1-((S)-3,3-dimethyl-2-(3-(2-(3-oxo-3-(((S)-1,2,3,4-tetrahydronaphthalen-1-yl)amino)propoxy)ethoxy)propanamido)butanoyl)-4-hydroxy-N-(4-(4-methylthiazol-5-yl)benzyl)pyrrolidine-2-carboxamide] |  | TMBIM6; also recorded: TOR4A

— patent US20250276069A1, “HETEROBIFUNCTIONAL COMPOSITIONS FOR TARGETED PROTEIN DEGRADATION AND METHODS FOR THEIR USE” (THE SCRIPPS RESEARCH INSTITUTE, priority 2021, published 2025)
